Assay results taken from patent EP0224924B1, “Non-aromatic fluorallylamine MAO inhibitors” (MERRELL DOW PHARMACEUTICALS INC., priority 1985, dated 1987).

What was measured:
[1] = molecular target: T1, MAO-B (Rattus norvegicus, UniProt P19643); test: Inhibition of MAO in vitro, rat brain mitochondria, 14C phenethylamine (PEA) as substrate; type: biochemical; settings: ratio of the inhibitory activity against MAO-B versus MAO-A
T1 construct: in partially purified mitochondria from rat brain; from tissue; host or cells: rat brain mitochondria (partially purified, differential centrifugation)
T1 sequence (P19643 1-520): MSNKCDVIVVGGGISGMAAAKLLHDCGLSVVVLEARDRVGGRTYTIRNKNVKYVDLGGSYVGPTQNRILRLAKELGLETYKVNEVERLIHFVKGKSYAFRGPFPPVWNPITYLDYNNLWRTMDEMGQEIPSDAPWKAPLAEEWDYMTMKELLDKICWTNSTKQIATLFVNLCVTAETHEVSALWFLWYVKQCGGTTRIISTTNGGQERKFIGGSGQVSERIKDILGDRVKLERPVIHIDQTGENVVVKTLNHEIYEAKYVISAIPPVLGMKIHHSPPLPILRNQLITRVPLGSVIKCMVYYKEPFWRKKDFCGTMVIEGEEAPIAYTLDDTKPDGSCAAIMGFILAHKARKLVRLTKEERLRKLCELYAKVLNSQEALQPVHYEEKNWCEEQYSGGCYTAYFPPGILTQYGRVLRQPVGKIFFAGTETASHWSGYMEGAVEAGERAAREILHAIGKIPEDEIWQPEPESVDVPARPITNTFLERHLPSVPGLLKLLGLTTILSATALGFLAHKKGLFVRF
Description: The ability of a compound of structure 1 to inhibit MAO can be determined in vitro by the method of A. Christmas et al., Br. J. Pharmacol. 45, 490 (1972) in partially purified mitochondria from rat brain using ¹⁴C o-tyramine or ¹⁴C phenethylamine and ¹⁴C 5-HT as the substrate. The MAO inhibitory activity of a compound is expressed as the "IC₅₀" value, which is the molar concentration required to produce 50% inhibition of the enzyme. The IC₅₀ values for certain compounds of structure 1 were determined using the above-described method, and the results are set forth in Table I.
The selectivity of a compound of structure 1 with respect to inhibition of MAO-A and MAO-B can be determined by preparing mitochondria from rat brain by homogenation in phosphate buffer (0.1 M, pH 7.2) followed by differential centrifugation. The mitochondria are suspended in the same buffer, the test compound is added at the desired concentration, and the system is incubated. At different time intervals, aliquots are taken and MAO activity is measured using ¹⁴C 5-hydroxytryptamine (5HT; a preferred substrate for MAO-A) or 14C-phenethylamine (PEA; a preferred substrate for MAO-B) as the substrates. The selectivity is expressed as the ratio of the inhibitory activity against MAO-B versus the inhibitory activity against MAO-A. (Zreika, McDonald, Bey, Palfreyman, J. Neurochem., 43, 448-454 (1984)).

[2] = tested on: MAO-B; test: Inhibition of MAO ex vivo, brain mitochondrial fraction after oral dosing, 14C phenethylamine as substrate; type: in vivo; settings: rats, orally (po)
Method: (§1) The ability of a compound of formula 1 to inhibit MAO can be determined ex vivo by the following procedure:
(§2) The test compound is administered orally (po) to rats and the animals are killed at various times after treatment. The brain is removed and a mitochondrial fraction, described in Example 12 is prepared. MAO activity is determined using ¹⁴C p-tyramine, as the substrate. Selectivity can be determined by repeating the above-described test using either ¹⁴C 5-hydroxytryptamine (for MAO-A) or ¹⁴C phenethylamine (for MAO-B) as the substrate for determining the % inhibition.

[3] = tested on: MAO-A; test: Inhibition of MAO ex vivo, brain mitochondrial fraction after oral dosing, 14C 5-hydroxytryptamine as substrate; type: in vivo; settings: rats, orally (po)
Method: as §1, §2

| MAO B SELECTIVITY [1] | Structure (SMILES) | ED50 for MAO-B inhibition [2] [mg/kg] | ED50 for MAO-A inhibition [3] [mg/kg] |
| --- | --- | --- | --- |
| 55 | CCCC/C(=C\F)CN [(E)-2-Butyl-3-fluoroallylamine] |  |  |
| 13 | CCCCCCC/C(=C\F)CN [(E)-2-Heptyl-3-fluoroallylamine] |  |  |
| 24 | CCCCCC/C(=C\F)CN [(E)-2-Hexyl-3-fluoroallylamine] |  |  |
| 77 | CC(C)C/C(=C\F)CN [(E)-2-Isobutyl-3-fluoroallylamine] | 0.05 | 0.8 |
| 68 | CC(C)/C(=C\F)CN [(E)-2-Isopropyl-3-fluoroallylamine] |  |  |
| 1.5 | CCCCCCCCCCC/C(=C\F)CN [(E)-2-Undecyl-3-fluoroallylamine] |  |  |
| 24 | CCC(C)/C(=C\F)CN (stereo not drawn) [(E)-2-sec-Butyl-3-fluoroallylamine] |  |  |
